From patent publication US6814960B1, “Hydroxystilbene compounds used as microbicidal active substances” (Ciba Specialty Chemicals Corporation, priority 1998, dated 2004)

Columns and labels:
Format in all cases: cell-based
[1] = test system: Staphylococcus hominis DSM 20328; assay: MIC value in microtitre plates (optical density); conditions: microtitre plate, CASO bouillon, 48 hours at 37° C., optical density 620 nm, ≦20% growth; some data indicative values
Protocol: (§1) Determination of the Minimum Inhibiting Concentration (MIC Value) in Microtitre Plates
(§2) Casein/soybean flour peptone bouillon for the preparation of the precultures of the test bacteria and yeast.
(§3) Mycological slant agar for the preculture of moulds.
(§4) Examples of Test Organisms
(§5) The test substances are predissolved in dimethyl sulfoxide (DMSO) and tested in a serial dilution of 1:2.
(§6) Bacteria and yeast are cultured overnight in CASO bouillon, the mould on mycological slant agar and rinsed off with 10 ml of 0.85% sodium chloride solution (+0.1% TritonX-100).
(§7) All test organisms are adjusted to an organism count of 1.5×10^6 CFU/ml with 0.85% sodium chloride solution.
(§8) The test substances are prepipetted into microtitre plates in an amount of 8 μl per well.
(§9) Previously diluted organism substances are diluted 1:100 in CASO bouillon (bacteria and yeast) and Sabouraud 2% glucose bouillon (mould) and added to the test substances in an amount of 192 μl per well.
(§10) The test batches are incubated for 48 hours at 37° C. (bacteria and yeast) or for 5 days at 28° C. (mould).
(§11) After incubation, the growth is determined by reference to the turbidity of the test batches (optical density) at 620 nm in a microplate reader.
(§12) The minimum inhibiting concentration (MIC value) is the concentration of substance at which (compared with the growth control) an appreciable inhibition of the growth (≦20% growth) of the test organisms is ascertained.
(§13) One microtiter plate is used for each test organism and substance concentration. All substances tested in duplicate.

[2] = test system: Candida albicans ATCC 10231; assay: MIC value in microtitre plates (optical density); conditions: microtitre plate, CASO bouillon, 48 hours at 37° C., optical density 620 nm, ≦20% growth; some data indicative values
Protocol: as §1, §2, §3, §4, §5, §6, §7, §8, §9, §10, §11, §12, §13

[3] = test system: Aspergillus niger ATCC 6275; assay: MIC value in microtitre plates (optical density); conditions: microtitre plate, Sabouraud 2% glucose bouillon, 5 days at 28° C., optical density 620 nm, ≦20% growth; some data indicative values
Protocol: as §1, §2, §3, §4, §5, §6, §7, §8, §9, §10, §11, §12, §13

[4] = test system: Pseudomonas aeruginosa CIP A-22; assay: MIC value in microtitre plates (optical density); conditions: microtitre plate, CASO bouillon, 48 hours at 37° C., optical density 620 nm, ≦20% growth; some data indicative values
Protocol: as §1, §2, §3, §4, §5, §6, §7, §8, §9, §10, §11, §12, §13

[5] = test system: Escherichia coli NCTC 8196; assay: MIC value in microtitre plates (optical density); conditions: microtitre plate, CASO bouillon, 48 hours at 37° C., optical density 620 nm, ≦20% growth; some data indicative values
Protocol: as §1, §2, §3, §4, §5, §6, §7, §8, §9, §10, §11, §12, §13

[6] = test system: Staphylococcus aureus ATCC 9144; assay: MIC in the agar diffusion test; conditions: for MIC S. aureus: Mueller-Hinton agar, 24 hours at 37° C., (101), (103) solution in EtOH, others in DMSO
Excerpt: (§14) Determination of the Minimum Inhibiting Concentration (MIC) in the Agar Diffusion Test

[7] = test system: Candida albicans ATCC 10231; assay: MIC in the agar diffusion test
Excerpt: as §14

[8] = test system: Aspergillus niger ATCC 6275; assay: MIC in the agar diffusion test
Excerpt: as §14

[9] = test system: Escherichia coli NCTC 8196; assay: MIC in the agar diffusion test; conditions: Escherichia coli, NCTC8196, 24 h, read-out: MIC E. coli
Excerpt: as §14

Compound | MIC values S. heminis [1] [ppm] | MIC values C. albicans [2] [ppm] | MIC values A. niger [3] [ppm] | MIC values P. aeruginosa [4] [ppm] | MIC values E. coli [5] [ppm] | MIC ([6]; Staphylococcus aureus, ATCC9144, 24 h, read-out: MIC S. aureus) [µg/mL] | MIC ([7]; Candida albicans, ATCC10231, 24 h, read-out: MIC C. albicans) [µg/mL] | MIC ([8]; Aspergillus niger, ATCC6275, 72 h, read-out: MIC A. niger) [µg/mL] | MIC [9] [µg/mL] | MIC S. aureus [6] [ppm] | MIC C. albicans ([7]; Mueller-Hinton agar, 24 hours at 37° C., (101), (103) solution in EtOH, others in DMSO) [ppm] | MIC A. niger ([8]; Sabouraud 4% glucose agar, 3 days at 28° C., (101) solution in EtOH, others in DMSO) [ppm]
COc1cc(/C=C/c2ccc(-c3ccccc3)cc2)cc(O)c1OC [Comp. of formula 151] | >100 | >100 | >100 | >100 | >100 |  |  |  |  |  |  | 
Cc1cccc(/C=C/c2ccc(-c3ccccc3)cc2)c1O [Comp. of formula 153] | >100 | >100 | >100 | >100 | >100 |  |  |  |  |  |  | 
Oc1ccc(/C=C/c2cccc3ccccc23)cc1 [Comp. of formula 156] | 7.5 | 15 | 30 | >100 | 60 |  |  |  |  |  |  | 
Oc1cccc(/C=C/c2cccc3ccccc23)c1 [Comp. of formula 157] | 7.5 | 15 | 60 | >100 | 15 |  |  |  |  |  |  | 
COc1ccc(/C=C/c2cccc3ccccc23)cc1O [Comp. of formula 158] | >100 | >100 | >100 | >100 | >100 |  |  |  |  |  |  | 
CCOc1cc(/C=C/c2cccc3ccccc23)ccc1O [Comp. of formula 159] | >100 | >100 | 100 | >100 | >100 |  |  |  |  |  |  | 
COc1cc(/C=C/c2cccc3ccccc23)ccc1O [Comp. of formula 160] | >100 | >100 | 100 | >100 | >100 |  |  |  |  |  |  | 
Oc1ccccc1/C=C/c1cccc2ccccc12 [Comp. of formula 162] | 7.5 | 30 | 15 | >100 | 30 |  |  |  |  |  |  | 
COc1cc(/C=C/c2cccc3ccccc23)cc(O)c1OC [Comp. of formula 163] | >100 | >100 | 100 | >100 | >100 |  |  |  |  |  |  | 
Cc1cccc(/C=C/c2cccc3ccccc23)c1O [Comp. of formula 165] | 100 | >100 | 100 | >100 | >100 |  |  |  |  |  |  | 
Cc1ccccc1/C=C/c1ccc(O)cc1 [Comp. of formula 168] | 7.5 | 15 | 30 | 100 | 30 |  |  |  |  |  |  | 
Cc1ccccc1/C=C/c1cccc(O)c1 [Comp. of formula 169] | 30 | 30 | 30 | 100 | 60 |  |  |  |  |  |  | 
COc1ccc(/C=C/c2ccccc2C)cc1O [Comp. of formula 170] | >100 | >100 | >100 | >100 | >100 |  |  |  |  |  |  | 
CCOc1cc(/C=C/c2ccccc2C)ccc1O [Comp. of formula 171] | >100 | >100 | >100 | >100 | >100 |  |  |  |  |  |  | 
COc1cc(/C=C/c2ccccc2C)ccc1O [Comp. of formula 172] | >100 | 10 | >100 | >100 | >100 |  |  |  |  |  |  | 
Cc1ccccc1/C=C/c1ccccc1O [Comp. of formula 174] | 60 | 60 | 60 | >100 | 100 |  |  |  |  |  |  | 
COc1cc(/C=C/c2ccccc2C)cc(O)c1OC [Comp. of formula 175] | 60 | 60 | 100 | 100 | 60 |  |  |  |  |  |  | 
Cc1ccccc1/C=C/c1cccc(C)c1O [Comp. of formula 177] | 30 | 60 | 60 | >100 | 60 |  |  |  |  |  |  | 
Cc1ccc(/C=C/c2ccc(O)cc2)cc1 [Comp. of formula 180] | 100 | >100 | >100 | >100 | >100 |  |  |  |  |  |  | 
Cc1ccc(/C=C/c2cccc(O)c2)cc1 [Comp. of formula 181] | 15 | 15 | 30 | 100 | 15 |  |  |  |  |  |  | 
COc1ccc(/C=C/c2ccc(C)cc2)cc1O [Comp. of formula 182] | >100 | >100 | >100 | >100 | >100 |  |  |  |  |  |  | 
CCOc1cc(/C=C/c2ccc(C)cc2)ccc1O [Comp. of formula 183] | >100 | >100 | >100 | >100 | >100 |  |  |  |  |  |  | 
COc1cc(/C=C/c2ccc(C)cc2)ccc1O [Comp. of formula 184] | >100 | >100 | 100 | >100 | >100 |  |  |  |  |  |  | 
Cc1ccc(/C=C/c2ccccc2O)cc1 [Comp. of formula 186] | 30 | 30 | 60 | 100 | 30 |  |  |  |  |  |  | 
COc1cc(/C=C/c2ccc(C)cc2)cc(O)c1OC [Comp. of formula 187] | >100 | >100 | >100 | >100 | >100 |  |  |  |  |  |  | 
Cc1ccc(/C=C/c2cccc(C)c2O)cc1 [Comp. of formula 189] | >100 | >100 | >100 | >100 | 100 |  |  |  |  |  |  | 
Oc1cccc(/C=C/c2ccccc2)c1 [Compound of formula (102), 3-hydroxystilbene] |  |  |  |  |  | 100 | 100 | 10 | 100 |  |  | 
CN(C)c1ccc(/C=C/c2ccccc2)cc1 [Compound of formula (104)] |  |  |  |  |  |  |  |  |  | 300 | 600 | 
Oc1ccc(/C=C/c2ccc(Cl)cc2)cc1 [Compound of formula (106)] |  |  |  |  |  |  |  |  |  | 10 |  | 600
